Assay results as given in paper PMC3515705 (Nature structural & molecular biology, 2012).

Biological target: scRio2 (Saccharomyces cerevisiae, UniProt P40160)
Sequence (P40160 whole entry): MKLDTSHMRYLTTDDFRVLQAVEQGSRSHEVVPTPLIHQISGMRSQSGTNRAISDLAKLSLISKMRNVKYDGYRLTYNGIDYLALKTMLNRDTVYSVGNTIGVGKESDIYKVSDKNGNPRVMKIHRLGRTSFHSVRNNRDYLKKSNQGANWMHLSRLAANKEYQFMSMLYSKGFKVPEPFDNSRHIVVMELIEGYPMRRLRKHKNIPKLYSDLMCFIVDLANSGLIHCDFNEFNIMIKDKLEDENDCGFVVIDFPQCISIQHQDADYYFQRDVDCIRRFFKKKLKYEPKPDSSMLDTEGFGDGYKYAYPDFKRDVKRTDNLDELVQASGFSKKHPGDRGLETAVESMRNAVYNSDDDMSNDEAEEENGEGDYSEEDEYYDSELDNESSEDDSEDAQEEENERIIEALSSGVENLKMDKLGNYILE

Nc1ncnc2c1ncn2[C@@H]1O[C@H](COP(=O)(O)OP(=O)(O)OP(=O)(O)O)[C@@H](O)[C@H]1O [ATP]
autophosphorylation detected by mass spectrometry: phospho-serine residues after incubation of purified recombinant scRio2 with ATP
